According to paper PMC7885111, “ApmA Is a Unique Aminoglycoside Antibiotic Acetyltransferase That Inactivates Apramycin” (mBio, 2021):

Assays:
[1] = target: T1, ApmA (Staphylococcus aureus, UniProt A0A1D0AST6); assay: X-ray crystallography ([…] A); format: binding; conditions: acetyl donor; crystals: 0.1 M citric acid pH 3.6, 30% PEG 200, 5 mM apramycin, 2 mM acetyl-CoA
T1 construct: full length, residues 1-274 described; synthetic gene in pET19b-TEV, E. coli BL21(DE3) host; N-terminal His10 tag cut by TEV for crystals; SeMet form also made; trimer
T1 sequence (A0A1D0AST6 entry or part of it): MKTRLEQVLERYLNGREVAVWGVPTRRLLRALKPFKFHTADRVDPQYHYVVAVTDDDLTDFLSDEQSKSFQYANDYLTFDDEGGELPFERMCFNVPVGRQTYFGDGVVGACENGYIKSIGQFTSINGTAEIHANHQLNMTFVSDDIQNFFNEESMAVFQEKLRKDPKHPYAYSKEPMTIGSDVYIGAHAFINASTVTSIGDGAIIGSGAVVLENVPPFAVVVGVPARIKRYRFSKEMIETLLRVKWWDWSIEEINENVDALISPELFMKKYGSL

[2] = target: T1, ApmA; assay: X-ray crystallography ([…] A); acetylation product shown by HR-ESI-MS and NMR; format: binding; conditions: crystals: 0.2 M CaCl (so in the source), 20% PEG 3350, 5 mM apramycin; turnover: 500 uM acetyl-CoA, pH 7.5, room temperature; acetylated at 2'-NH2; PDB id printed as 7J6M2 (typo for 7JM2)

SMILES	X-ray crystallography (2.30 A) [1]	X-ray crystallography (1.85 A); acetylation product shown by HR-ESI-MS and NMR [2]
CC(=O)SCCNC(=O)CCNC(=O)[C@H](O)C(C)(C)COP(=O)(O)OP(=O)(O)OC[C@H]1O[C@@H](n2cnc3c(N)ncnc32)[C@H](O)[C@@H]1OP(=O)(O)O [acetyl-CoA]	7JM1 (ApmA complex with acetyl-CoA)	–
CN[C@@H]1[C@@H](O[C@H]2O[C@H](CO)[C@@H](N)[C@H](O)[C@H]2O)O[C@H]2C[C@@H](N)[C@@H](O[C@H]3[C@H](O)[C@@H](O)[C@H](N)C[C@@H]3N)O[C@@H]2[C@@H]1O [apramycin]	–	Crystals of the apoenzyme and ApmA in complex with apramycin or acetyl-CoA were obtained
